Measurements: paper PMC6263254, “Solid-Phase Synthesis of Arylpiperazine Derivatives and Implementation of the Distributed Drug Discovery (D3) Project in the Search for CNS Agents” (Molecules, 2011)
Read-outs that look alike come from different tables or passages of the source.

Key:
5-HT1A receptors = conditions: cited from earlier work
5-HT2A = conditions: cited from earlier work
[1] = design: method as in PMID 17321139; conditions: doses of 5–20 mg/kg; ref [4]; cited from earlier work
[2] = biological target: T1, native serotonin 5-HT1A receptors (Rattus norvegicus, UniProt P19327); test: Radioligand binding, [3H]-8-OH-DPAT, rat hippocampal membranes; conditions: read-out: Ki 5-HT1A; further: SEM ≤ 22%
T1 construct: from tissue; host or cells: rat hippocampus membranes
T1 sequence (P19327 1-422): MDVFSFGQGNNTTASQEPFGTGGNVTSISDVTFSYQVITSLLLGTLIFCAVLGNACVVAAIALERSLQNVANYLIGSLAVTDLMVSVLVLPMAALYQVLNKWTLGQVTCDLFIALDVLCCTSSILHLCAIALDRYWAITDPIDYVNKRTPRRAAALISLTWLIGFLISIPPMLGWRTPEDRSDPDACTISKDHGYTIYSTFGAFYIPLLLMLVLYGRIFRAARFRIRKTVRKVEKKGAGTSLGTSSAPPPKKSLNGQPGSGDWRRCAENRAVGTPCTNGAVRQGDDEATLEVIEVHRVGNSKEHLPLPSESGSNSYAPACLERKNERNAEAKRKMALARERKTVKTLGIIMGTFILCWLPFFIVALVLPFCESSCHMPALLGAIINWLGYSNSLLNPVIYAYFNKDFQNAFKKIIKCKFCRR
Experimental: (§1) Membrane preparation and a general assay procedure were carried out according to the previously published protocols. Two compound concentrations were tested: 0.1 and 1 μM, each run in triplicate.

[3] = biological target: T2, native serotonin 5-HT2A receptors (Rattus norvegicus, UniProt P14842); test: Radioligand binding, [3H]-ketanserin, rat cortical membranes; conditions: read-out: Ki 5-HT2A; on Ki 5-HT2A: SEM ≤ 22%
T2 construct: from tissue; host or cells: rat cortex membranes
T2 sequence (P14842 whole entry): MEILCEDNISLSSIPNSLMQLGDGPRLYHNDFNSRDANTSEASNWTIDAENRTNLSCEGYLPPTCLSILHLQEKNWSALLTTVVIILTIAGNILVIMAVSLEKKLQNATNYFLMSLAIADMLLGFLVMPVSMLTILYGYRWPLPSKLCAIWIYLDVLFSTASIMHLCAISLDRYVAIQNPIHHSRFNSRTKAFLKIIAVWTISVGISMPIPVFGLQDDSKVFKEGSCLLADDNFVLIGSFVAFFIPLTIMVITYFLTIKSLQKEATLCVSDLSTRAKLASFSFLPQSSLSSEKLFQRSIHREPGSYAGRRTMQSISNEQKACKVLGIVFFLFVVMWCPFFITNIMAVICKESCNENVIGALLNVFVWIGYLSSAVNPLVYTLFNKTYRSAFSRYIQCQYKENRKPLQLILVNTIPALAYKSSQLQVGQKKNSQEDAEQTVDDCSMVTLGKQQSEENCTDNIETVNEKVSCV
Experimental: as §1

Row | Compound | potency estimated from few doses [2] [nM] | potency estimated from few doses [3] [nM] | further results
1 | COc1ccccc1N1CCN(CCCCN2C(=O)C[C@H](NC(=O)C3CCCCC3)C2=O)CC1 [PZ-68] | – | – | functional activity at 5-HT1A receptors (5-HT1A receptors; ref [4]): partial agonist; functional activity at 5-HT2A receptors (5-HT2A; ref [4]): antagonist; in vivo antidepressant-like activity [1]: showed in vivo antidepressant-like activity
2 | O=C1C[C@H](NC(=O)C23CC4CC(CC(C4)C2)C3)C(=O)N1CCCCN1CCN(c2cccc(C(F)(F)F)c2)CC1 [9{9,6}, N-((S)-1-{4-[4-((3-trifluoromethyl)phenyl)piperazin-1-yl]butyl}pyrrolidin-2,5-dion-yl)-1-adamatanecarboxamide] | 21 | 39 | –
3 | CC(=O)N[C@H]1CC(=O)N(CCCN2CCN(c3cccc(C(F)(F)F)c3)CC2)C1=O [9{8,1}, N-((S)-1-{3-[4-((3-trifluoromethyl)phenyl)piperazin-1-yl]propyl}pyrrolidin-2,5-dion-yl)acetamide] | 129 | 164 | –
4 | O=C(N[C@H]1CC(=O)N(CCCCN2CCN(c3cccc(C(F)(F)F)c3)CC2)C1=O)C1CCCC1 [9{9,2}, N-((S)-1-{4-[4-((3-trifluoromethyl)phenyl)piperazin-1-yl]butyl}pyrrolidin-2,5-dion-yl)cyclopentanecarboxamide] | 24 | 79 | –
5 | O=C(N[C@H]1CC(=O)N(CCCCN2CCN(c3cccc(C(F)(F)F)c3)CC2)C1=O)C1CCCCC1 [9{9,3}, N-((S)-1-{4-[4-((3-trifluoromethyl)phenyl)piperazin-1-yl]butyl}pyrrolidin-2,5-dion-3-yl)cyclohexanecarboxamide] | 19 | 70 | –
6 | O=C(N[C@H]1CC(=O)N(CCCN2CCN(c3cccc(C(F)(F)F)c3)CC2)C1=O)C1CCCCC1 [9{8,3}, N-((S)-1-{3-[4-((3-trifluoromethyl)phenyl)piperazin-1-yl]propyl}pyrrolidin-2,5-dion-yl)cyclohexanecarboxamide] | 170 | 276 | –
7 | O=C(NCCCCN1CCN(c2cccc(C(F)(F)F)c2)CC1)[C@@H]1CCCN1C(=O)C1CCCC1 [10{9,2}, 1-(Cyclopentylcarbonyl)-N-{4-[4-((3-trifluoromethyl)phenyl)piperazin-1-yl]butyl}-L-prolinamide] | 26 | 191 | –
8 | O=C(NCCCN1CCN(c2cccc(C(F)(F)F)c2)CC1)[C@@H]1CCCN1C(=O)C12CC3CC(CC(C3)C1)C2 [10{8,6}, 1-(Adamantylcarbonyl)-N-{3-[4-((3-trifluoromethyl)phenyl)piperazin-1-yl]propyl}-L-prolinamide] | 42 | 1650 | –
9 | O=C(NCCCCN1CCN(c2cccc(C(F)(F)F)c2)CC1)[C@@H]1CCCN1C(=O)C12CC3CC(CC(C3)C1)C2 [10{9,6}, 1-(Adamantylcarbonyl)-N-{4-[4-((3-trifluoromethyl)phenyl)piperazin-1-yl]butyl}-L-prolinamide] | 8 | 699 | –
10 | O=C1CC2(CCCC2)CC(=O)N1CCCCN1CCN(c2ncccn2)CC1 [buspirone, reference compound] | 36 | – | –
11 | O=c1[nH]c2ccccc2n1CCN1CCN(c2cccc(C(F)(F)F)c2)CC1 [Flibanserin] | – | – | functional activity at 5-HT1A receptors (5-HT1A receptors; ref [1],[2]): agonist; functional activity at 5-HT2A receptors (5-HT2A; ref [1],[2]): antagonist
